Values of other authors as cited in patent US20250241354A1, “ORAL PRODUCTS” (RAI STRATEGIC HOLDINGS, INC., priority 2024, published 2025).

Settings: in words

Structure (SMILES)	solubility
CC(/C=C/C=C(C)/C=C/C(=O)O)=C\C=C\C=C(C)\C=C\C=C(C)\C=C\C(=O)O (stereo in doubt) [norbixin, (2E,4E,6E,8E,10E,12E,14E,16E,18E)-4,8,13,17-tetramethylicosa-2,4,6,8,10,12,14,16,18-nonaenedioic acid]	water-soluble
COC(=O)/C=C/C(C)=C\C=C\C(C)=C\C=C\C=C(C)\C=C\C=C(C)\C=C\C(=O)O [bixin, (2E,4E,6E,8E,10E,12E,14E,16Z,18E)-20-methoxy-4,8,13,17-tetramethyl-20-oxoicosa-2,4,6,8,10,12,14,16,18-nonaenoic acid]	soluble in fats and alcohols but insoluble in water
